From ChEMBL document CHEMBL5385886, “Design, synthesis and evaluation of nitric oxide releasing derivatives of 2,4-diaminopyrimidine as novel FAK inhibitors for intervention of metastatic triple-negative breast cancer” (Eur J Med Chem, 2023)
Activity calls are given as the source filed them. The calls are words filed in the database; no cut-off is given here.

How the values were obtained:
MDA-MB-231 [1] = assay: Antiproliferative activity against human MDA-MB-231 cells assessed as inhibition of cell proliferation incubated for 72 hrs by MTT assay; assay type: functional, cell-based; details: MDA-MB-231, 72 h
MDA-MB-453 = assay: Antiproliferative activity against human MDA-MB-453 cells assessed as inhibition of cell proliferation incubated for 72 hrs by MTT assay; assay type: functional, cell-based; details: MDA-MB-453, 72 h
Focal adhesion kinase 1 = Focal adhesion kinase 1 (Homo sapiens, UniProt Q05397); assay: Inhibition of FAK (unknown origin)
Focal adhesion kinase 1, sequence (Q05397 whole entry): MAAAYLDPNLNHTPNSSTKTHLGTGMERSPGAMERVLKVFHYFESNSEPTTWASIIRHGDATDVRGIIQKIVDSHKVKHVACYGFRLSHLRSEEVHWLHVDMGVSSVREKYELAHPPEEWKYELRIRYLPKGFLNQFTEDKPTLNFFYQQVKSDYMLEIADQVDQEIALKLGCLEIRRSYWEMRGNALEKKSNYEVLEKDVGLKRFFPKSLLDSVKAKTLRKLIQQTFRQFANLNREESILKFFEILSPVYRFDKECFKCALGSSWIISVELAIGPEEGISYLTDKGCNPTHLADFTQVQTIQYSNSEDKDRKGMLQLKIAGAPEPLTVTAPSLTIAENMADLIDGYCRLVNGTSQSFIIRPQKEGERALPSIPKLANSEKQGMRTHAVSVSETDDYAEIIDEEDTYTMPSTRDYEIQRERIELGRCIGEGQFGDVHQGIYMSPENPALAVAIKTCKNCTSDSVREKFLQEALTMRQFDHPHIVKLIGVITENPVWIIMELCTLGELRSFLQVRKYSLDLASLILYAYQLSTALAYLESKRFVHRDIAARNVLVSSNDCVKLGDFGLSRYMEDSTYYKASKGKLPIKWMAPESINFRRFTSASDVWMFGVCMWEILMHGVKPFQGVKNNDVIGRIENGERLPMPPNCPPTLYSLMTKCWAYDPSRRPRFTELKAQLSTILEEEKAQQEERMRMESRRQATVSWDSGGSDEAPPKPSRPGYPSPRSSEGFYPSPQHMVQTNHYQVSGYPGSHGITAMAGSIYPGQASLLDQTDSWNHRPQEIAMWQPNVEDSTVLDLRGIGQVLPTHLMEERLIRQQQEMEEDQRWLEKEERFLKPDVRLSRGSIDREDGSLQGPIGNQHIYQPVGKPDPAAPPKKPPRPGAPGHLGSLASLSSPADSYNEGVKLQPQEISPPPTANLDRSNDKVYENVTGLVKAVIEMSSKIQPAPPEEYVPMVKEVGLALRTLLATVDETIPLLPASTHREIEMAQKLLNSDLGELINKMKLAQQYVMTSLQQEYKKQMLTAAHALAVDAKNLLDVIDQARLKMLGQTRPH

MDA-MB-231 [2] = assay: Induction of NO production in human MDA-MB-231 cells at 4 uM incubated for 72 hrs by DAF-FM-DA dye based flow cytometry analysis; assay type: functional, cell-based
MDA-MB-157 = assay: Antiproliferative activity against human MDA-MB-157 cells assessed as inhibition of cell proliferation incubated for 72 hrs by MTT assay; assay type: functional, cell-based; details: MDA-MB-157, 72 h
MDA-MB-231 [3] = assay: Antiproliferative activity against human MDA-MB-231 cells assessed as inhibition of cell proliferation at 5 uM incubated for 72 hrs by MTT assay relative to control; assay type: functional
MDA-MB-231 [4] = assay: Antiproliferative activity against human MDA-MB-231 cells assessed as inhibition of cell proliferation incubated for 72 hrs in presence of 2-(4-((5-chloro-4-((2-(methylcarbamoyl)phenyl)amino)pyrimidin-2-yl)amino)phenyl)acetic acid by MTT assay; assay type: functional, cell-based; details: MDA-MB-231, 72 h

Row | SMILES | IC50 (MDA-MB-231 [1]) [nM] | IC50 (MDA-MB-453) [nM] | IC50 (Focal adhesion kinase 1) [nM] | Activity (MDA-MB-231 [2]) | IC50 (MDA-MB-157) [nM] | inhibition at 5 µM (MDA-MB-231 [3]) [%] | IC50 (MDA-MB-231 [4]) [nM]
1 | CNC(=O)c1ccccc1Nc1nc(Nc2ccc(CC(=O)OCCCCCOc3no[n+]([O-])c3S(=O)(=O)c3ccccc3)cc2)ncc1Cl | 130 | 221 | 107 | Active | 235 | > 92 | –
2 | O=S(=O)(c1ccccc1)c1c(OCCCCCCCCO)no[n+]1[O-] | 1500 | – | – | – | – | – | 1220
